Results as given in article PMC12006171, “Marsupial cathelicidins: characterization, antimicrobial activity and evolution in this unique mammalian lineage” (Frontiers in Immunology, 2025).
Where two headings read alike, the source gives them in different places.

What was measured:
[1] = tested on: six bacteria (S. aureus, E. coli, P. aeruginosa; ATCC and clinical isolate); format: cell-based; settings: synthesized mature peptide
Protocol: (§1) Antimicrobial testing of 78 cathelicidin MPs was performed in two phases as outlined in Figure 1 . In phase I, 40 peptides (27 extant and 13 ancestral) were selected for testing based on rank (outlined above) and similarity to published marsupial cathelicidins with known antimicrobial activity ([33], [41]–[43]). These peptides were tested against nine bacteria (Staphylococcus aureus ATCC 29213 and clinical isolate, Escherichia coli ATCC 25922 and clinical isolate, Pseudomonas aeruginosa ATCC 27853 and clinical isolate, Streptococcus agalactiae ATCC 12386 and clinical isolate, Streptococcus pneumoniae ATCC 49619) and three fungi (Candida krusei ATCC 6258, Candida parapsilosis ATCC 22019, and Candida albicans clinical isolate). Details regarding these strains are available in Supplementary Table 4 . The antimicrobial activity of cathelicidins was determined as the minimum inhibitory concentration (MIC), which was the lowest concentration of cathelicidin that prevented visible bacterial or fungal growth, relative to the negative control. […] Minimum bactericidal concentration (MBC) and/or minimum fungicidal concentration (MFC) was conducted to determine microbicidal versus static action. Activity against S. aureus ATCC, E. coli ATCC, and Pseudomonas aeruginosa ATCC 27853 was examined in the presence of divalent cations to determine the impact of inhibitors.
In phase II, the remaining 38 peptides (37 extant and one ancestral) were tested against six bacteria (S. aureus ATCC and clinical isolate, E. coli ATCC and clinical isolate, and P. aeruginosa ATCC and clinical isolate). […] No further testing on phase II peptides was performed. Detailed methods for all assays are provided in subsequent sections.
(§2) Antimicrobial activity was determined using a broth microdilution susceptibility assay in 96 well polypropylene plates according to Clinical Laboratory Standards Institute guidelines M07-A and M26A as described previously ([33], [42], [43]). The bacterial and fungal isolates from humans and animals used in this study are outlined in Supplementary Table 4 . Only yeasts were included in the panel of fungi as they have been used in the susceptibility testing of eutherian ([3], [81]–[83]) and other marsupial cathelicidins previously ([33], [42], [43]). Cathelicidin mature peptides were solubilized in DMSO and serially diluted in duplicate from 128-0.25μg/mL in a final volume of 100µL. For bacteria, cathelicidins were diluted in Mueller Hinton Broth (MHB) with or without 10% lysed horse blood, and with (MH II B) or without (MHB) calcium and magnesium cations. For fungi, cathelicidins were diluted in Roswell Park Memorial Institute medium (RPMI)-1640 MOPS. Ampicillin or tetracycline were included as a positive control for Gram-positive and -negative bacteria respectively, while amphotericin B was used for fungi. A media-only negative control and growth control (no cathelicidin) were also included on each plate. Bacteria were sub-cultured on Muller Hinton agar (MHA) or sheep blood agar (BA), and fungi on Sabouraud dextrose agar (SAB), 20–24 hours prior to the test. Colonies were suspended in saline, the concentration adjusted to a 0.5 McFarland standard, and then diluted in media to a concentration of 1.0 x 10^6 cells/mL. Then, 100μL was added to each well of the cathelicidin dilution plate, giving a final inoculum density of 5 x 10^5 CFU/mL and cathelicidin concentration of 64-0.125μg/mL. Colony counts were performed on MHA/BA/SAB to confirm inoculum density. All plates were incubated at 35°C for 20–24 hours, depending on the strain.
(§3) Colonies were counted and compared to the colony count of the starting inoculum.

[2] = tested on: three fungi (Candida krusei, Candida parapsilosis, Candida albicans); assay: Antifungal screening, summary over the panel of fungi (broth microdilution); format: cell-based
Protocol: as §1, §2, §3

[3] = antimicrobial screening Phase I, Y/N summary over bacteria tested, broth microdilution
[4] = synthesized mature peptide, antimicrobial screening Phase I, Y/N summary over fungi tested, broth microdilution

With “PELLRSRRSPLPRRKKGSKKNSYKTGGYSVIALGKSNVHKAPYMEAL [TrvuCath1]” the “Antibacterial (MIC <64ug/mL)” value ([1]; broth microdilution screening, phase I or II, Y/N summary over the bacteria tested) was “N (Antibacterial (MIC <64ug/mL))” and the “Antifungal (MIC <64ug/mL)” value ([2]; broth microdilution screening, phase I, Y/N summary over the fungi tested, synthesized mature peptide) was “N (Antifungal (MIC <64ug/mL))”.
For “PGKRRGKLIKKGGKGVKRLLPKNGIIILPPG [MAP5, marsupial ancestral peptide, predicted by ANCESCON and GASP, synthesized]”, the “Antibacterial (MIC <64ug/mL)” value [1, 3] was “N (Antibacterial (MIC <64ug/mL))” and the “Antifungal (MIC <64ug/mL)” value [2, 4] was “N (Antifungal (MIC <64ug/mL))”.
In the case of “PKRKKGSKKRRFRPGGYTLIALGKPRVQKAPYMEAL [MAP3, marsupial ancestral peptide, likely linear, rich in arginine (32.2%) and proline (25.8%)]”, the “Antibacterial (MIC <64ug/mL)” value [1, 3] is reported as “N (Antibacterial (MIC <64ug/mL))” and the “Antifungal (MIC <64ug/mL)” value [2, 4] is reported as “N (Antifungal (MIC <64ug/mL))”.
For RQIYDQAKYDILTGILRNF [BepeCath8], the “Antibacterial (MIC <64ug/mL)” value [1, 3] was “N (Antibacterial (MIC <64ug/mL))” and the “Antifungal (MIC <64ug/mL)” value [2, 4] was “N (Antifungal (MIC <64ug/mL))”.
With “SRGLRKKLKKLGKSIKKRLKNIKIGYSIPFPG [PspeCath1p]” the “Antifungal (MIC <64ug/mL)” value ([2]; Y/N summary over the fungi screened, broth microdilution, NT = not tested) was “Y (Antifungal (MIC <64ug/mL))”.
